Experimental data reported in patent publication US12226403B2 (SPERO THERAPEUTICS, INC., priority 2016, dated 2025).

Legend:
[1] = PK parameters for oral administration to monkeys; assay type: in vivo; conditions: cynomolgus monkey, plasma, 100 mg; oral tablets vs previously generated IV data, estimated; read-out: bioavailability of tebipenem
Procedure: Each animal received a one week wash out prior to the next dose and each served as its own control. Blood samples were collected into K2EDTA tubes before processing to plasma. Samples were obtained at 15 minutes, 30 minutes, 1 hours, 2 hours, 4 hours, 6 hours, 8 hours, 10 hours, 12 hours, 16 hours, and 24 hours post administration. […] Non-compartmental analysis used to derive pharmacokinetic parameters of the composite time vs. concentration profiles were performed for each dose level using Phoenix Winnonlin v. 6.4. Plasma concentration of tebipenem for each time point was determined by HPLC.

[2] = Previously generated IV data; conditions: in vivo, 10 mg/kg dose
From the text: Cmax was reduced with the modified release formulation compared to the immediate release (free base and HBr) formulation but AUCall was relatively constant between the formulations. AUCinf could not be calculated due to the variability in the terminal elimination profile. […] Mean residence time was increased in the extended release formulation.

C[C@@H](O)[C@H]1C(=O)N2C(C(=O)O)=C(SC3CN(C4=NCCS4)C3)[C@H](C)[C@H]12 [tebipenem]
bioavailability [1]: 39 to 50% | AUC [2]: 13100 ng·h/mL
